Measurements from article PMC5684506 (BioImpacts : BI, 2017).

Target: T1, bovine liver catalase (BLC) (Bos taurus, UniProt P00432)
T1 sequence (P00432 2-527): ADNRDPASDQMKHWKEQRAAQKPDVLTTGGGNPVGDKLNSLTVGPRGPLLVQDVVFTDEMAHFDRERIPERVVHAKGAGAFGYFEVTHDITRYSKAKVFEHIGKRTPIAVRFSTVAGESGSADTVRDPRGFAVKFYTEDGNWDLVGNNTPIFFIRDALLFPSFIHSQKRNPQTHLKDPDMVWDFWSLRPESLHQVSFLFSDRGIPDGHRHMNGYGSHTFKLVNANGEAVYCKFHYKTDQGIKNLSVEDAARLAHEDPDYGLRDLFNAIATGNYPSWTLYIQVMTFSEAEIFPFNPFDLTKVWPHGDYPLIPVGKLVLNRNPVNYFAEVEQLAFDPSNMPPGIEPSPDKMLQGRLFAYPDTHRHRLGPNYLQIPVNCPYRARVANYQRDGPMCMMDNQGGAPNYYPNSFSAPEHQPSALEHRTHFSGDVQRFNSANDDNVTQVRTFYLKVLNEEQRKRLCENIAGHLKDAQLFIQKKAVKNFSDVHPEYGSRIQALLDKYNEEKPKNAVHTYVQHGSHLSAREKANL
Assay: UV assay of H2O2 decomposition at […] nm with Lineweaver-Burk analysis
Assay type: biochemical

For O=c1c(O)c(-c2ccc(O)c(O)c2)oc2cc(O)cc(O)c12 [QUE, 3,5,7,3ʹ,4ʹ-pentahydroxyflavone], which Ki is on record?
Its Ki is 46 µM.
